Tests used:
[1] = Skin absorption, Franz diffusion cells with dermatomed skin explants; format: in vitro ADME
Method: The transdermal absorption tests are carried out using a modified methodology of Franz diffusion cells, in which a semi-permeable membrane is used, such as reconstructed skin or skin explants. The membrane is located between the (i) donor and (ii) receptor compartments with the stratum corneum facing upward. The product is applied to the exposed stratum corneum in the donor compartment. Under the membrane, the receiving chamber contains a solution that simulates physiological conditions and where the tested substances are highly soluble.
After the product is delivered to the surface of the skin, samples are taken from the receptor compartment at predetermined times to determine the amount of substance accumulated in the receptor compartment as a function of time. In addition, at the end of the test, the extraction of the substance that has been retained in the skin is carried out. For the quantification of all the samples obtained, a suitable analytical method is necessary for each substance investigated. The skin explants were dermatomed (the dermatome device allows to cut skin layers of the skin at a determined thickness) at 200 μm thickness and placed on Franz cells, the receptor compartment was filled with PBS solution, used to simulate the physiological fluid and allowed to equilibrate for at least 30 minutes. Then, receptor solution was added into the donor compartment and the integrity of the skin was determined. After removing the solution and drying the donor, the composition of the invention 3 μl/0.38 cm2 (7.9 uL/cm2) was administered into the donor compartment.
Samples from the receptor compartment were taken at predetermined times to obtain the amount of active permeated. Said samples were filtered on 0.2 μm pore size cellulose acetate filters and analyzed by HPLC. The sample volume taken was replaced with fresh receptor solution. After taking the last sample from the receptor compartment, a first wash of the skin surface was performed with PBS, then, the Franz cells were disassembled.
The skin was carefully dried and the stratum corneum was removed by tape stripping. Tapes were put in 2 mL of extraction medium for at least 2 hours. The skin diffusion area was cut into small pieces and placed in extraction liquid under continuous stirring for 1 hour. After filtering the samples obtained, they were analyzed by HPLC to obtain the amount of substance retained on the skin.

CB2 receptors = CB2 receptors (Homo sapiens, UniProt P34972); details: compared with THC; cited from earlier work
[2] = 2 hours after application of the composition to the skin
[3] = composition of the invention 7.9 uL/cm2 applied to skin explant, Franz cell

Sequence of CB2 receptors (P34972 whole entry): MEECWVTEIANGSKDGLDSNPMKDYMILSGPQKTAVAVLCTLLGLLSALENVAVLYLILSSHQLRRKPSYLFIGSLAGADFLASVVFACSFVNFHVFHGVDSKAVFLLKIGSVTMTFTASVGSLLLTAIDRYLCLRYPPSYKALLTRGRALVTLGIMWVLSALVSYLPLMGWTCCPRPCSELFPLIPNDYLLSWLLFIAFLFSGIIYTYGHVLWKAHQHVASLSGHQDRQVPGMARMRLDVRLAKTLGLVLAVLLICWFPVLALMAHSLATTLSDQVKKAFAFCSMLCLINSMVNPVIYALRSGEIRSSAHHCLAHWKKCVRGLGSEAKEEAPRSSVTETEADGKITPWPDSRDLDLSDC

C=C(C)[C@@H]1CCC(C)=C[C@H]1c1c(O)cc(CCCCC)cc1O [CBD, 2-[(1R,6R)-6-isopropenyl-3-methylcyclohex-2-en-1-yl]-5-pentylbenzene-1,3-diol]
Permeation of CBD (receptor compartment) ([1]; 1 hour after application of the composition to the skin): No permeation | CBD in the stratum corneum (tape stripping) [1, 2]: No CBD was found | Permeation of CBD (receptor compartment) [1, 2]: No permeation | CBD absorbed in the skin [1, 3]: 2.38±1.52 μg CBD/cm^2 | CBD absorbed in the skin as share of the CBD applied on the top of the skin [1, 3]: 15.85% | Affinity for CB2 receptors (CB2 receptors): very low affinity

From patent publication US20240156698A1, “BIOCIDE COMPOSITIONS AND USES THEREOF” (PHARMOTECH SA, priority 2021, published 2024)
